Laboratory results reported in patent US11578074B2, “Nitrogenous heterocyclic compound, preparation method, intermediate, composition, and application” (SHANGHAI PHARMACEUTICALS HOLDING CO., LTD., priority 2017, dated 2023).
Like-named read-outs stand apart in the source and are kept apart here.

Key:
CYP3A4 = molecular target: T1, CYP3A4 (Homo sapiens, UniProt P08684); assay: Direct inhibition (DI) of CYP3A4 in human liver microsomes; type: in vitro ADME; settings: human liver microsomes 0.2 mg/mL, 10 μM compound
T1 construct: A system of 100 μL human liver microsomes; from tissue; host or cells: human liver microsomes
T1 sequence (P08684 whole entry): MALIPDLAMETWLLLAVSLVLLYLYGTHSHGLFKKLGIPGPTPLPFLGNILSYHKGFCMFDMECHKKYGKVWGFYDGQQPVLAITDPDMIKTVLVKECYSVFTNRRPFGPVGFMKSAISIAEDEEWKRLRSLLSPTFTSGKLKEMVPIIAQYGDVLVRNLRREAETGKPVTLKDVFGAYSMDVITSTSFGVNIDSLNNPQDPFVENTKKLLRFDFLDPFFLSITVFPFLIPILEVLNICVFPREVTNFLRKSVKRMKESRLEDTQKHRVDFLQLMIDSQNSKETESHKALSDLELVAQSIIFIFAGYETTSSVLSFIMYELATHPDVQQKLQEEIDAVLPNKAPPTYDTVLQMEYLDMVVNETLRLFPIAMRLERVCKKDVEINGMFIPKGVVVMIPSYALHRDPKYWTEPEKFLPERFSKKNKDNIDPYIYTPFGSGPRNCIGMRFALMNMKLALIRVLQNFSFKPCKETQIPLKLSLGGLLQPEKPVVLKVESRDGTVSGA
Method in brief: (§1)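 Pooled human liver microsomes (0.2 mg/mL) with 1 mM NADPH and 10 μM test compound were incubated for 20 min with a mixed probe-substrate cocktail (midazolam 10 μM, testosterone 100 μM, dextromethorphan 10 μM, diclofenac 20 μM, phenacetin 100 μM, mephenytoin 100 μM). Relative enzyme activity came from metabolite formation versus DMSO control.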

CYP2D6 = molecular target: T2, CYP2D6 (Homo sapiens, UniProt P10635); assay: Direct inhibition (DI) of CYP2D6 in human liver microsomes; type: in vitro ADME; settings: probe Dextromethorphan, human liver microsomes 0.2 mg/mL, 10 μM compound, read-out: Direct inhibition (DI) 2D6 (Dextromethorphan)
T2 construct: A system of 100 μL human liver microsomes; from tissue; host or cells: human liver microsomes
T2 sequence (P10635 whole entry): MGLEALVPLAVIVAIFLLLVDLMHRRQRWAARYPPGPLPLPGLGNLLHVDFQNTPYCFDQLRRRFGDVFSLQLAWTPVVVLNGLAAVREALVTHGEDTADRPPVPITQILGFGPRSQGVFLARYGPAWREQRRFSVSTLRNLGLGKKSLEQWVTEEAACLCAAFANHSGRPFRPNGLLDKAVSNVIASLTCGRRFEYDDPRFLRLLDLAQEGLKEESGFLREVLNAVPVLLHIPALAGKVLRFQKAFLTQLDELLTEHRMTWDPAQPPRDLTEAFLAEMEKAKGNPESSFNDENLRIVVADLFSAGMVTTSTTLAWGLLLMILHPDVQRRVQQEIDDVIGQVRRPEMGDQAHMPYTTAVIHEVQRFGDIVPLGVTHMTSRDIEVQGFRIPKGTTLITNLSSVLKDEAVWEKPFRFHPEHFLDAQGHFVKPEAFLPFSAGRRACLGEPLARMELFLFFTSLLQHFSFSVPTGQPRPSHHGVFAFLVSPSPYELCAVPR
Method in brief: as §1

CYP2C9 = molecular target: T3, CYP2C9 (Homo sapiens, UniProt P11712); assay: Direct inhibition (DI) of CYP2C9 in human liver microsomes; type: in vitro ADME; settings: probe Diclofenac, human liver microsomes 0.2 mg/mL, 10 μM compound, read-out: Direct inhibition (DI) 2C9 (Diclofenac)
T3 construct: A system of 100 μL human liver microsomes; from tissue; host or cells: human liver microsomes
T3 sequence (P11712 whole entry): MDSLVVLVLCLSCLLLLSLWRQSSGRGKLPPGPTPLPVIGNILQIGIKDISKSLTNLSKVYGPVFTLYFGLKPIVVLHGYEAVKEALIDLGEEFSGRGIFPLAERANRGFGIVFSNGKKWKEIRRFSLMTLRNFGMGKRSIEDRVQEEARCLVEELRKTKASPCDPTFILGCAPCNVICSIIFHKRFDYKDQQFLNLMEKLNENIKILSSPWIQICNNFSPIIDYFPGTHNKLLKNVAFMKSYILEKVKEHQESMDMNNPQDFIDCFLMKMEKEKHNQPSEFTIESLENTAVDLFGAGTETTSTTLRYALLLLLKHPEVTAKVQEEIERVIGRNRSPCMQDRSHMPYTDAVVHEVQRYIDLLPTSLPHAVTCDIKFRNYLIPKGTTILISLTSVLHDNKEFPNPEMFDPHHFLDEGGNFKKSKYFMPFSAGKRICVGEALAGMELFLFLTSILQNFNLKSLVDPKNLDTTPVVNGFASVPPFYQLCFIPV
Method in brief: as §1

CYP1A2 = molecular target: T4, CYP1A2 (Homo sapiens, UniProt P05177); assay: Direct inhibition (DI) of CYP1A2 in human liver microsomes; type: in vitro ADME; settings: probe Phenacetin, human liver microsomes 0.2 mg/mL, 10 μM compound, read-out: Direct inhibition (DI) 1A2 (Phenacetin)
T4 construct: A system of 100 μL human liver microsomes; from tissue; host or cells: human liver microsomes
T4 sequence (P05177 1-516): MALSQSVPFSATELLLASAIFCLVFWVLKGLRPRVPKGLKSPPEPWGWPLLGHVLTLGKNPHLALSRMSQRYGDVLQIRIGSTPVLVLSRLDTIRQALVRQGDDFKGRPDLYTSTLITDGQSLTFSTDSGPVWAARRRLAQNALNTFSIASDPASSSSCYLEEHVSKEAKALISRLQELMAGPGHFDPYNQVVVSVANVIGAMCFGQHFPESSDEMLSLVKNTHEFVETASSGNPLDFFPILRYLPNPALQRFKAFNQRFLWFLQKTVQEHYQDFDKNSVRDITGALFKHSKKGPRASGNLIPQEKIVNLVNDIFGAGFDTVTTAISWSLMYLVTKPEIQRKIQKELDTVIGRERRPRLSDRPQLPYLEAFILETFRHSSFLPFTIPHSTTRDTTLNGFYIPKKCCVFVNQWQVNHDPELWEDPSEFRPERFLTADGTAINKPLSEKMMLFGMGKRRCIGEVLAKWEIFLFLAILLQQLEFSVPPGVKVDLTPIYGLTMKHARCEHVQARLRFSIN
Method in brief: as §1

CYP2C19 = molecular target: T5, CYP2C19 (Homo sapiens, UniProt P33261); assay: Direct inhibition (DI) of CYP2C19 in human liver microsomes; type: in vitro ADME; settings: probe Mephenytoin, human liver microsomes 0.2 mg/mL, 10 μM compound, read-out: Direct inhibition (DI) 2C19 (Mephenytoin)
T5 construct: A system of 100 μL human liver microsomes; from tissue; host or cells: human liver microsomes
T5 sequence (P33261 whole entry): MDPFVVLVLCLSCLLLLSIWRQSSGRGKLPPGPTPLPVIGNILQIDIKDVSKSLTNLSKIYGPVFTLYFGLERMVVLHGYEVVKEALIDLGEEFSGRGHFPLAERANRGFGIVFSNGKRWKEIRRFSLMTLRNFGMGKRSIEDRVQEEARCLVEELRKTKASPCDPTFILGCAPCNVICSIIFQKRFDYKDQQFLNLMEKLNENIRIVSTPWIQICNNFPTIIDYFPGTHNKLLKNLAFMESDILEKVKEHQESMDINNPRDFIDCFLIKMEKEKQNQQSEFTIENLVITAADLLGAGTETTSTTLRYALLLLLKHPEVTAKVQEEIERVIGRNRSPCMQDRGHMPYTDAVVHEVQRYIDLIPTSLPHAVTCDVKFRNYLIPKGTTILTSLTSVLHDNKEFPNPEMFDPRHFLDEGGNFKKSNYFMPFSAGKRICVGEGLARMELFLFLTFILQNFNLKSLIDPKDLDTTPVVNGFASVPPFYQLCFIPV
Method in brief: as §1

[1] = In vivo pharmacokinetics study in beagle dogs; settings: beagle dogs, oral 15 mg/kg
Protocol: 6 male beagle dogs (purchased from Beijing Marshall Biotechnology Co., Ltd., certificate No. SCXK (Beijing) 2016-0001) were divided into 2 groups with 3 dogs in each group, and all of the animals were fasted for about 12 hours before administration. One group was orally administrated with 15 mg/kg of the final product of Embodiment 22 (deionized water was added, followed by sonication for 29 minutes and stirring for 4 minutes, and a clear pale yellow dosing solution with a concentration of 3 mg/mL was prepared); the other group was orally administrated with 15 mg/kg of Pyrotinib (deionized water was added, followed by sonication for 28 minutes and stirring for 5 minutes, and a clear yellow dosing solution with a concentration of 3 mg/mL was prepared). Blood samples were collected before administration and at 15, 30, 60, 90, 120, 150, 180, 240, 360, 480, 720 and 1440 minutes respectively after administration.
(§2) 1.0 mL of blood was collected from each animal through jugular vein puncture at each time point and heparin sodium was used for anticoagulation. The blood samples were collected and placed in labeled centrifuge tubes, and plasma was centrifuged (centrifugation conditions: 3500 rpm, 10 minutes, 2-8° C.). To 50 μL of plasma sample was added 300 μL of acetonitrile containing internal standard (Propranolol, 25 ng/mL) to precipitate the protain. After vortexing for 10 minutes and centrifuging at 6000 g for 20 minutes, 100 μL of supernatant was taken and injected into a 96-well plate. The drug concentration in plasma was determined by UPLC/MS-MS.

[2] = In vivo pharmacokinetics study in cynomolgus monkeys; settings: cynomolgus monkeys, oral 15 mg/kg
Protocol: 6 male cynomolgus monkeys (purchased from Guangxi Guidong Primate Development Experiment Co., Ltd., certificate No. SCXK (Guangxi) 2013-0057) were divided into 2 groups with 3 in each group, and all of the animals were fasted for about 12 hours before administration. One group was orally administrated with 15 mg/kg of the final product of Embodiment 22 (deionized water was added, followed by sonication for 30 minutes and stirring for 3 minutes, and a clear pale yellow dosing solution with a concentration of 3 mg/mL was prepared); one group was administrated with 15 mg/kg of Pyrotinib (deionized water was added, followed by sonication for 30 minutes and stirring for 4 minutes, and a clear yellow dosing solution with a concentration of 3 mg/mL was prepared). Blood samples were collected before administration and at 15, 30, 60, 90, 120, 150, 180, 240, 360, 480, 720 and 1440 minutes respectively after administration.
as §2

[3] = test system: HER2 overexpressing human gastric cancer NCI-N87 nude mice xenograft; assay: HER2 overexpressing human gastric cancer NCI-N87 nude mice xenograft model; type: in vivo; settings: 10 mg/kg, continuous oral administration for 21 days
Source text: We have established nude mice xenograft model for HER2 overexpression.

SMILES: CCOc1cc2ncc(C#N)c(Nc3ccc(OCc4ccccn4)c(Cl)c3)c2cc1NC(=O)/C=C/[C@H]1CCCN1C [Pyrotinib, reference compound]
- inhibition at 20 min, 10 µM (CYP3A4; probe Midazolam, read-out: Direct inhibition (DI) 3A4 (Midazolam)): 15%
- inhibition at 20 min, 10 µM (CYP3A4; probe Testosterone, read-out: Direct inhibition (DI) 3A4 (testosterone)): 22%
- inhibition at 20 min, 10 µM (CYP2D6): 55%
- inhibition at 20 min, 10 µM (CYP2C9): 26%
- inhibition at 20 min, 10 µM (CYP1A2): 22%
- inhibition at 20 min, 10 µM (CYP2C19): 43%
- peak oral absorption concentration [1]: 146.2 ng/mL
- AUC ([1]; male, dog, plasma, read-out: AUC): 1620 ng·h/mL
- oral absorption peak concentration [2]: 56.42 ng/mL
- AUC ([2]; male, cynomolgus monkey, plasma, read-out: AUC): 325 ng·h/mL
- tumor volume inhibition rate (GI %) [3]: 127.0%
